Values quoted from earlier work, collected in patent US20090053275A1, “Foam/spray producing compositions and dispencing system therefor” (priority 2000, published 2009).

Which water solubility does the source give for Oc1cc(Cl)ccc1Oc1ccc(Cl)cc1Cl [triclosan] here?
The water solubility was “not water soluble”.
